Measurements: US20240226066A1, “CARDIOPROTECTION BY AUTOPHAGY INDUCTION AND METABOLIC REPROGRAMMING” (UNIVERSITE PARIS-SACLAY, priority 2021, published 2024)
Read-outs that look alike come from different tables or passages of the source.

Legend:
[1] = system: RNVCs; assay: Mitochondrial ROS production with MitoSOX fluorescent probe; type: cell-based, rat; conditions: 1 μM, 6 h
Experimental: FIG. 12: The RNVCs were treated with 0.1% DMSO, 3 μM rapamycin, 1 μM digitoxigenin, 1 μM digoxin, 1 μM minaprin, 1 μM VP331, 1 μM LOPA87, 10 μM SG6163F for 6 h, then the ROS production was stained with the MitoSOX fluorescent probe.
The RNVCs were treated with 0.01% DMSO, 3 μM rapamycin, […], 1 μM digoxin, 1 μM minaprine, 1 μM VP331, 1 μM LOPA87, 10 μM SG6163F in a serum-free cell culture medium for 6 hours. The contents (50 μg) of a MitoSOX™ mitochondrial superoxide indicator vial (ThermoFisher, M36008) were dissolved in 13 μl dimethyl sulfoxide (DMSO) to prepare a 5 mM MitoSOX™ reagent stock solution. Next, the 5 mM MitoSOX™ reagent stock solution in PBS was diluted to prepare a 5 μM working solution of MitoSOX™ reagent. After treatment, the cells were rinsed twice with hot PBS and then incubated with a MitoSOX reagent working solution for 10 minutes at 37° C. The cells were gently rinsed three times with hot PBS. Red fluorescence was detected with a Leica confocal microscope. Nuclear fluorescence was suppressed and mitochondrial fluorescence intensity was measured using ImageJ software.
ROSs are produced or accumulated as a by-product of mitochondrial activity metabolism. Thus, the ROSs may be a consequence of mitochondrial function or may reflect a defect in the mitochondrial antioxidant system.

[2] = system: A549 lung cancer cell line; assay: Influence of hits on growth of A549 cancer cells (total LDH after lysis); type: cell-based; conditions: 48 h
Experimental: The cells were cultured for 6 h in the presence or absence of the hits, and then for 42 h. Finally, the cells were lysed with lysis buffer and the amount of LDH was measured to evaluate the total cell growth.
A colorimetric assay was used to measure lactate dehydrogenase (LDH), a cytosolic enzyme which is released during permeabilization of the plasma membrane (Promega G1780). The assay was performed using cell culture supernatants obtained from H9C2 or RNVC (rat neonatal ventricular myocyte) cells and lysis buffer (LB) was used as a positive control for total cell lysis. The LDH release was measured by absorbance reading at 490 nm (Infinite spectrofluorimeter, Tecan).
The effect of the compounds was then evaluated on primary rat neonatal ventricular cardiomyocytes (RNVCs) using the LDH test and propidium iodide staining. […] The absence of proliferative effects of the compounds was also evaluated on the A549 lung cancer cell line for 48 h (FIG. 2C).

[3] = system: RNVCs; assay: Mitochondrial network and cell volume by confocal microscopy (Mitotracker, calcein-AM, IMARIS); type: cell-based, rat; conditions: for effect on the mitochondrial network / number of mitochondria: 1 and 10 μM, 6 h
Experimental: FIG. 6. Effects on mitochondrial dynamics by fluorescence microscopy The RNVCs were treated with 1 μM hits (FIG. 6A) and 10 μM hits (FIG. 6B) for 6 h and the mitochondrial network was stained with 200 nM of Mitotracker. The mitochondrial network and individual mitochondria were then analyzed using a Leica confocal microscope and IMARIS software. Data are presented as mean±SEM with single-factor ANOVA, and multiple Sidak comparisons. *, p<0.05, **, p<0.01, ***, p<0.001 with respect to DMSO.
FIG. 11: following the treatment of the RNVCs with the compounds as indicated, the cell volume was stained with 4 μM of calcein-AM. The cell volume was then analyzed using the IMARIS software.
Confocal microscopy. On day 0, 4×10^5 neonatal cardiomyocytes were plated overnight on laminin-coated 35 mm culture dishes (10 μg/ml). On day 1, the cells were treated with various compounds at 1 or 10 μM for 6 hours. The cells were incubated with Mitotracker Red 580 at 200 nM for 20 minutes at 37° C., then 4 μM of calcein (Calcein AM, Life Technologies, St Aubin, France) for 10 minutes at 37° C. The images were acquired with a Leica confocal microscope (SP5) (Mannheim, Germany). The mitochondrial network and the 3D model of cell volume were reconstructed using the IMARIS software (Bitplane Company, Zurich, Switzerland); therefore the cell volume, mitochondrial number and volume were analyzed.
Due to the importance of mitochondria and reactive oxygen species (ROS) levels in the fate of cardiomyocyte cells, the hypothesis that the compounds could impact the mitochondrial network was explored. Following treatment of the RNVCs with the compounds tested, the mitochondrial network was stained with 200 nM of Mitotracker and the cell volume with 4 μM of calcein-AM. Thus, the mitochondrial network and the individual mitochondria were then analyzed using the IMARIS software.

[4] = target: T1, hERG potassium channel (Homo sapiens, UniProt Q12809); assay: hERG channel binding assay ([3H]dofetilide displacement); conditions: for inhibition at 10 µM: human, probe [3H]dofetilide
T1 construct: Eurofins
Experimental: The evaluation of the binding of the compounds to the human hERG potassium channel was carried out as described previously (Eurofins).
Since the blocking of the human potassium channel hERG channel may be responsible for cardiac fibrillation leading to cardiac arrest and death of the patient, the binding of the 3 molecules SG6163F, VP331 and LOPA87 to this receptor was evaluated.

[5] = system: H9C2 cells; assay: Exogenous fatty acid oxidation (XF palmitate-BSA FAO substrate with mito stress test); type: cell-based, rat; conditions: fatty acids as substrate
Experimental: FIG. 8C: the oxidation of the exogenous fatty acids was measured simultaneously using the XF palmitate-BSA FAO substrate kit with the mito stress test on XF cells. Before starting the test, 30 μL of XF palmitate-BSA CAM or BSA control substrate were added to the appropriate wells.
The XFe96 extracellular flow analyzer (Seahorse Biosciences, North Billerica, MA, USA) was used to measure the bioenergetic function of H9C2 cardiomyocytes. The H9C2 cells were seeded at 20 000 cells per well in XF96 cell culture microplates; all the pretreatments were carried out with serum-free cell culture medium. The Agilent Seahorse XF glycolysis stress test was performed to measure glycolytic function in the H9C2 cells; the extracellular acidification rate (ECAR) was measured sequentially by 3 injections, 10 mM glucose, 2 μM oligomycin and 50 mM 2-deoxy-D-glucose (2-DG). The Agilent Seahorse XF Cell Mito stress test measured key parameters of mitochondrial function by directly measuring the oxygen consumption rate (OCR) of the H9C2 cells. […] The oxidation of the exogenous fatty acids was measured simultaneously using the XF palmitate-BSA FAO substrate kit with the mitochondrial stress test on XF cells. […]
(§1) Next, the energy metabolism was analyzed in real time using the Seahorse technology in H9C2 cells.

[6] = system: H9C2 cells; assay: Seahorse XF Cell Mito stress test (OCR); type: cell-based, rat; conditions: glucose and pyruvate as substrates, 6 h
Experimental: FIG. 8B: the H9c2 cells were treated with the compounds for 6 h, then a mitochondrial respiration stress test was carried out.
The XFe96 extracellular flow analyzer (Seahorse Biosciences, North Billerica, MA, USA) was used to measure the bioenergetic function of H9C2 cardiomyocytes. The H9C2 cells were seeded at 20 000 cells per well in XF96 cell culture microplates; all the pretreatments were carried out with serum-free cell culture medium. The Agilent Seahorse XF glycolysis stress test was performed to measure glycolytic function in the H9C2 cells; the extracellular acidification rate (ECAR) was measured sequentially by 3 injections, 10 mM glucose, 2 μM oligomycin and 50 mM 2-deoxy-D-glucose (2-DG). The Agilent Seahorse XF Cell Mito stress test measured key parameters of mitochondrial function by directly measuring the oxygen consumption rate (OCR) of the H9C2 cells. The test used the built-in injection ports on XF sensor cartridges to add respiration modulators into the cell well during the test in order to reveal key parameters of mitochondrial function. Oligomycin at 2 μM was injected first after the baseline measurements. Then 1 μM of […] (FCCP) was injected. The third injection corresponds to 0.5 μM of antimycin A, to stop mitochondrial respiration. The oxidation of the exogenous fatty acids was measured simultaneously using the XF palmitate-BSA FAO substrate kit with the mitochondrial stress test on XF cells. The substrate-limited medium is DMEM with 0.5 mM glucose, 1 mM GlutaMAX, 0.5 mM carnitine and 1% fetal calf serum. Carnitine was added freshly on the day of the change of medium. The FAO test medium contains 111 mM NaCl, 4.7 mM KCl, 1.25 mM CaCl2, 2 mM MgSO4, 1.2 mM NaH2PO4, supplemented with 2.5 mM glucose, 0.5 mM carnitine and 5 mM HEPES on the day of the test, adjusted to pH 7.4 at 37° C. The H9C2 cells were seeded at 20 000 cells per well in XF96 cell culture microplates. […]
as §1

[7] = system: LC3II; assay: LC3 I/II conversion by western blot in RNVCs; type: cell-based, rat; conditions: rapamycin positive control (3 μM)
Experimental: FIG. 4E: LC3-I/II protein levels in the RNVCs. Data are presented as mean±SEM with single-factor ANOVA, and multiple Sidak comparisons. *, p<0.05, **, p<0.01 with respect to DMSO.
The H9C2 cells and RNVCs were detached in LB containing: 50 mM Tris, 150 mM NaCl, 1 mM EDTA, 0.5% deoxycholate, 1% Triton X 100, 0.1% SDS (pH 8.0). The cells were collected and placed on ice for 30 minutes. The cells were then centrifuged at 2000 g for 20 minutes at for 4° C. The supernatant was transferred to a new tube and stored on ice. The protein concentration was determined by BCA assay. The protein samples were diluted with sample buffer (2× Laemmli, Sigma), mixed, and heated for 5 minutes at 95° C. […] The images were recorded with a gel imaging system (Bio Rad). […]
Next, the hypothesis that the compounds could protect cardiac cells by activating autophagy, a catabolic process conserved in evolution that involves the degradation of damaged cytoplasmic components, was formulated. […] Then, the cells were treated with the hits and with H2O2 for 2 hours and their survival was analyzed 4 hours later by measuring LDH release (FIGS. 4B, 4C). […] In order to confirm the induction of autophagy by another approach, the RNVCs were transfected with a GFP-LC3 plasmid and the formation of the autophagosome was monitored 24 hours later. […]

T1 sequence (Q12809 whole entry): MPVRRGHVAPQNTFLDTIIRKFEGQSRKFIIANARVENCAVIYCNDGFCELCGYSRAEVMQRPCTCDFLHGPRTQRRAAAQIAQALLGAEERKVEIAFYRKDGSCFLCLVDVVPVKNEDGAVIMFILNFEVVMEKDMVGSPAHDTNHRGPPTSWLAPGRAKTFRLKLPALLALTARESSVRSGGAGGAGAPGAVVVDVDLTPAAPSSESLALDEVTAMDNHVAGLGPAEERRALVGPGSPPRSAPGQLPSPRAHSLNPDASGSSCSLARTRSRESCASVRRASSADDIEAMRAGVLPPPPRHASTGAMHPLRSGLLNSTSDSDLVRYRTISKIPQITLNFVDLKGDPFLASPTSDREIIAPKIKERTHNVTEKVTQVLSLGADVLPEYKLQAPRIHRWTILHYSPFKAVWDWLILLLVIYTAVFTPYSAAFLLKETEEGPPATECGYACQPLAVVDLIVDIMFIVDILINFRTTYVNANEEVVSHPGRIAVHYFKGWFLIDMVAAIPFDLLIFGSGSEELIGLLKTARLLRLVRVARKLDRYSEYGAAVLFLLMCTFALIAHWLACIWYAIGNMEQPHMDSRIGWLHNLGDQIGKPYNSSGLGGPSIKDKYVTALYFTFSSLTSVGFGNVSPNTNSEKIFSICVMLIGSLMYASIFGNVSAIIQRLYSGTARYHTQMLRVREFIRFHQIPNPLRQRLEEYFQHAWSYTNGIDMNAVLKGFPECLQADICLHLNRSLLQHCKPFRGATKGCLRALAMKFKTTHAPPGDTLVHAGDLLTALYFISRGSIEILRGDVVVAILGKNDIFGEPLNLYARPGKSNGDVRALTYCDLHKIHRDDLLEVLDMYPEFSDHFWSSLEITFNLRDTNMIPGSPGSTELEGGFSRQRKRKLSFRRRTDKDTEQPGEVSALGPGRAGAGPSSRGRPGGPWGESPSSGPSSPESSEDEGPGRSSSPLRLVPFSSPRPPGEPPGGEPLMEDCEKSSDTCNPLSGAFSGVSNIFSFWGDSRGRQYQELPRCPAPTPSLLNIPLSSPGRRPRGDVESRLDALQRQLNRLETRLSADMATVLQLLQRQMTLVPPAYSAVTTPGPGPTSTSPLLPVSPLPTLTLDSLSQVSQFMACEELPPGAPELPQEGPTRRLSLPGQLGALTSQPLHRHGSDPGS

COc1ccc(C)cc1/C=N/[C@@H]1C[C@@H]2C[C@H]([C@H]1C)C2(C)C [VP331]
local level of mitochondrial superoxide anion [1]: induced an elevation
effect on A549 cell growth [2]: no proliferative effect
effect on the mitochondrial network [3]: no effect
number of mitochondria [3]: no effect
inhibition at 10 µM ([4]; inhibition of tritiated dofetilide binding, only values >50% considered effective, read-out: % inhibit 1st assay): -4%
inhibition at 10 µM ([4]; inhibition of tritiated dofetilide binding, only values >50% considered effective, read-out: % inhibit 2nd assay): 5.4%
inhibition at 10 µM ([4]; mean of two independent measurements, read-out: % inhibit Mean): 0.7%
binding to the hERG channel ([4]; inhibition of specific binding of [3H]dofetilide in vitro): negligible
oxidative phosphorylation [5]: improved oxidative phosphorylation

Cc1cc(-c2ccccc2)nnc1NCCN1CCOCC1 [minaprine]
local level of mitochondrial superoxide anion [1]: induced an elevation
effect on A549 cell growth [2]: significantly reduced cell growth and induced cell death
mitochondrial mass ([3]; 10 μM): decreased the mitochondrial mass
effect on the mitochondrial network [3]: no effect
number of mitochondria [3]: no effect
ATP production by oxidative phosphorylation (OXPHOS) [6]: improved ATP production by oxidative phosphorylation

CO[C@H]1C[C@@H]2CC[C@@H](C)[C@@](O)(O2)C(=O)C(=O)N2CCCC[C@H]2C(=O)O[C@H]([C@H](C)C[C@@H]2CC[C@@H](O)[C@H](OC)C2)CC(=O)[C@H](C)/C=C(\C)[C@@H](O)[C@@H](OC)C(=O)[C@H](C)C[C@H](C)/C=C/C=C/C=C/1C [rapamycin, reference compound]
increase in level of expression of LC3II [7]: > 1.4 fold
